Common to all, as to format: functional
One test deals with T47D. The test is described as follows: Cytotoxicity against Homo sapiens (human) T47D cells assessed as growth inhibition at 10 uM after 48 hr by coulter counter analysis. Conditions: read-out: GI.
In the next test the test system is Hs-578T. The test is described as follows: Cytotoxicity against Homo sapiens (human) Hs578T cells assessed as growth inhibition at 10 uM after 48 hr by coulter counter analysis. Conditions: read-out: GI.
Another test deals with M14. The test is described as follows: Cytotoxicity against Homo sapiens (human) M14 cells assessed as growth inhibition at 10 uM after 48 hr by coulter counter analysis. Particulars: M14, 48 h, read-out: GI.
The next test deals with Malme-3M. The test is described as follows: Cytotoxicity against Homo sapiens (human) MALME-3M cells assessed as growth inhibition at 10 uM after 48 hr by coulter counter analysis. Particulars: read-out: GI.
For a further test, the system named is U-251. The test is described as follows: Cytotoxicity against Homo sapiens (human) U251 cells assessed as growth inhibition at 10 uM after 48 hr by coulter counter analysis. Conditions: U-251, 48 h, read-out: GI.
In another test the test system is KM12. The test can be described thus: Cytotoxicity against Homo sapiens (human) KM12 cells assessed as growth inhibition at 10 uM after 48 hr by coulter counter analysis. Conditions: KM12, 48 h, read-out: GI.
Another test deals with HCC 2998. The test is described as follows: Cytotoxicity against Homo sapiens (human) HCC2998 cells assessed as growth inhibition at 10 uM after 48 hr by coulter counter analysis. Particulars: HCC 2998, 48 h, read-out: GI.
A further test deals with NCI-H522. The test is described as follows: Cytotoxicity against Homo sapiens (human) NCI-H522 cells assessed as growth inhibition at 10 uM after 48 hr by coulter counter analysis. Conditions: NCI-H522, 48 h, read-out: GI.
The nature of test [1]: Cytotoxicity against Homo sapiens (human) NCI-ADR-RES cells assessed as growth inhibition at 10 uM after 48 hr by coulter counter analysis. Conditions: read-out: GI.
The next test concerns OVCAR-8. The test can be described thus: Cytotoxicity against Homo sapiens (human) OVCAR8 cells assessed as growth inhibition at 10 uM after 48 hr by coulter counter analysis. Conditions: OVCAR-8, 48 h, read-out: GI.
For the next test, the system named is OVCAR-5. The test can be described thus: Cytotoxicity against Homo sapiens (human) OVCAR5 cells assessed as growth inhibition at 10 uM after 48 hr by coulter counter analysis. Particulars: OVCAR-5, 48 h, read-out: GI.
The subject of the next test is OVCAR-4. The test can be described thus: Cytotoxicity against Homo sapiens (human) OVCAR4 cells assessed as growth inhibition at 10 uM after 48 hr by coulter counter analysis. Conditions: OVCAR-4, 48 h, read-out: GI.
The next test relates to UACC-257. The test can be described thus: Cytotoxicity against Homo sapiens (human) UACC257 cells assessed as growth inhibition at 10 uM after 48 hr by coulter counter analysis. Particulars: UACC-257, 48 h, read-out: GI.
The test system of a further test is NCI-H460. The test is described as follows: Cytotoxicity against Homo sapiens (human) NCI-H460 cells assessed as growth inhibition at 10 uM after 48 hr by coulter counter analysis. Conditions: NCI-H460, 48 h, read-out: GI.
A further test concerns NCI-H23. The test is described as follows: Cytotoxicity against Homo sapiens (human) NCI-H23 cells assessed as growth inhibition at 10 uM after 48 hr by coulter counter analysis. Particulars: NCI-H23, 48 h, read-out: GI.
A further test has as its system NCI-H226. The test can be described thus: Cytotoxicity against Homo sapiens (human) NCI-H226 cells assessed as growth inhibition at 10 uM after 48 hr by coulter counter analysis. Conditions: NCI-H226, 48 h, read-out: GI.
The test system of a further test is EKVX. The test is described as follows: Cytotoxicity against Homo sapiens (human) EKVX cells assessed as growth inhibition at 10 uM after 48 hr by coulter counter analysis. Particulars: read-out: GI.
Another test deals with 786-0. The test can be described thus: Cytotoxicity against Homo sapiens (human) 786-0 cells assessed as growth inhibition at 10 uM after 48 hr by coulter counter analysis. Particulars: 786-0, 48 h, read-out: GI.
A further test concerns CCRF-CEM. The test can be described thus: Cytotoxicity against Homo sapiens (human) CCRF-CEM cells assessed as growth inhibition at 10 uM after 48 hr by coulter counter analysis. Conditions: read-out: GI.

Structures are written as SMILES. Some results are limits rather than exact numbers.

Consider `CSc1nc2ccccc2c(=O)n1CCc1ccccc1`, for which the inhibition of growth at 10 µM in the test on T47D is 59%; in the test with Hs-578T, 14%; in the test with M14, under 10%; in the test on Malme-3M it was under 10%; in the test on U-251 it was 12%; in the test on KM12 it was 28%. For the same compound, the inhibition of growth at 10 µM in the test on HCC 2998 is under 10%; in the test on NCI-H522 it was under 10%; in test [1], 18%; with OVCAR-8 it was under 10%; in the test on OVCAR-5, under 10%; in the test with OVCAR-4 it was 21%. The inhibition of growth at 10 µM with UACC-257 was under 10%; in the test on NCI-H460, under 10%; with NCI-H23, 16%; in the test with NCI-H226, 11%; in the test with EKVX it was 29%.

In the case of `O=c1c2ccccc2nc(SCCN2CCCCC2)n1CCc1ccccc1`, the inhibition of growth at 10 µM is 14% in the test with 786-0; 35% with T47D; under 10% with Hs-578T; under 10% with M14; under 10% in the test on Malme-3M; 14% with U-251. Moreover, the inhibition of growth at 10 µM is under 10% in the test with KM12; under 10% with HCC 2998; 11% in the test on NCI-H522; 13% in test [1]; under 10% in the test on OVCAR-8; 12% in the test on OVCAR-5. Besides, the inhibition of growth at 10 µM in the test with OVCAR-4 was 14%; with UACC-257 it was under 10%; with NCI-H460, under 10%; in the test with NCI-H23, 23%; with NCI-H226, under 10%; with EKVX, 30%.

With `O=c1c2ccccc2nc(SCCN2CCOCC2)n1CCc1ccccc1`, the inhibition of growth at 10 µM with 786-0, with Hs-578T, with M14, in the test on Malme-3M, in the test with U-251 and in the test with KM12 was under 10% throughout. Further, the inhibition of growth at 10 µM (in the test with HCC 2998; in the test on NCI-H522; in test [1]; in the test on OVCAR-8; with OVCAR-5; in the test on OVCAR-4) was under 10% in each case. For the same compound, the inhibition of growth at 10 µM in the test with UACC-257, with NCI-H460, in the test on NCI-H23, with NCI-H226 and in the test with EKVX was under 10% each time.

In the case of `O=c1c2ccccc2nc(SCc2ccc([N+](=O)[O-])cc2)n1CCc1ccccc1`, the inhibition of growth at 10 µM with 786-0 was under 10%; in the test with T47D it was 15%; in the test with Hs-578T, 19%; in the test on M14 it was under 10%; in the test on Malme-3M, under 10%; with U-251 it was under 10%. Also, the inhibition of growth at 10 µM in the test with KM12 was under 10%; in the test on HCC 2998 it was under 10%; in the test with NCI-H522, under 10%; in test [1], 12%; in the test on OVCAR-8 it was under 10%; with OVCAR-5, under 10%. In addition, the inhibition of growth at 10 µM in the test with OVCAR-4 is under 10%; in the test on UACC-257, under 10%; in the test on NCI-H460, under 10%; with NCI-H23 it was 15%; in the test on EKVX it was 19%.

`O=c1c2ccccc2nc(SCc2nnc(S)n2Cc2ccccc2)n1CCc1ccccc1`: the inhibition of growth at 10 µM with 786-0 was under 10%; in the test with T47D, 38%; in the test on Hs-578T it was under 10%; in the test on M14, under 10%; in the test on Malme-3M, under 10%; with U-251, under 10%. Besides, the inhibition of growth at 10 µM was under 10% with KM12; under 10% with HCC 2998; 46% with NCI-H522; 16% in [1]; under 10% with OVCAR-8; under 10% with OVCAR-5. Besides, the inhibition of growth at 10 µM is under 10% in the test on OVCAR-4; under 10% with UACC-257; under 10% in the test with NCI-H23; 22% in the test with NCI-H226; 17% with EKVX; 13% with CCRF-CEM.

For the compound `O=C1c2ccccc2C(=O)N1CCCSc1nc2ccccc2c(=O)n1CCc1ccccc1`, the inhibition of growth at 10 µM was 13% in the test with 786-0; 30% with T47D; under 10% in the test with M14; under 10% with Malme-3M; 15% with U-251; under 10% with KM12. In addition, the inhibition of growth at 10 µM was under 10% with HCC 2998; 13% in the test with NCI-H522; under 10% in test [1]; under 10% with OVCAR-8; under 10% in the test with OVCAR-5; under 10% in the test on OVCAR-4. Also, the inhibition of growth at 10 µM with UACC-257 is under 10%; with NCI-H460, under 10%; with NCI-H23, under 10%; with NCI-H226, under 10%; in the test on EKVX, 16%.

As to `O=C(CSc1nc2ccccc2c(=O)n1CCc1ccccc1)c1ccc(F)cc1`, the inhibition of growth at 10 µM was 32% in the test on 786-0; 18% with T47D; 25% in the test on Hs-578T; under 10% in the test on M14; under 10% with Malme-3M; 19% with U-251. Also, the inhibition of growth at 10 µM in the test with KM12 is under 10%; with HCC 2998, under 10%; in the test on NCI-H522 it was under 10%; in test [1] it was under 10%; in the test with OVCAR-8, 31%; in the test on OVCAR-5 it was under 10%. Also, the inhibition of growth at 10 µM is under 10% in the test on OVCAR-4; under 10% in the test with UACC-257; under 10% with NCI-H460; 20% with NCI-H23; under 10% in the test with NCI-H226; 16% in the test with EKVX.

As for `O=C(CSc1nc2ccccc2c(=O)n1CCc1ccccc1)c1ccccc1`, the inhibition of growth at 10 µM in the test with 786-0 was under 10%; with T47D, under 10%; with Hs-578T it was under 10%; with M14, under 10%; in the test on Malme-3M, 14%; with U-251 it was 11%. Besides, the inhibition of growth at 10 µM in the test with KM12 was under 10%; with HCC 2998, under 10%; in the test with NCI-H522, 11%; in test [1], under 10%; in the test with OVCAR-8 it was 15%; with OVCAR-5 it was under 10%. Further, the inhibition of growth at 10 µM was under 10% with OVCAR-4; under 10% with UACC-257; under 10% with NCI-H460; under 10% in the test with NCI-H23; under 10% in the test on NCI-H226; 18% in the test on EKVX.

The values above are taken from ChEMBL document CHEMBL3044826, “Design, synthesis and biological evaluation of some novel substituted 2-mercapto-3-phenethylquinazolines as antitumor agents” (2013).
